In PubChem BioAssay AID1845209 (Molecular Pharmacology Branch, DTP, NCI, 2023):

Test system: NCI-H211 tumor spheroids, viability percent test/control
Experiment: Anticancer human tumor NCI-H211 cell line growth inhibition;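 further: spheroids exposed to agents for seven days before readout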
Conditions: spheroids with HUVEC and MSC; for IC50: curve of first compound; for viability, T/C: stronger effect = lower value
How it was run: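 Complex tumor spheroids combined malignant cells with endothelial cells and mesenchymal stem cells. DNA-damaging drugs and DNA repair inhibitors were tested alone and in combination, at half-log dilutions down from clinical Cmax (top 10 microM if Cmax unknown), 0.25% DMSO final.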

## Cn1ncnc1[C@H]1c2n[nH]c(=O)c3cc(F)cc(c23)N[C@@H]1c1ccc(F)cc1 + COc1cc2c(cc1O)CCNC21CSC2c3c(OC(C)=O)c(C)c4c(c3C(COC1=O)N1C(O)C3Cc5cc(C)c(OC)c(O)c5C(C21)N3C)OCO4
Second compound 30 pM
  IC50: < 9.49 nM
Second compound 94.9 pM
  IC50: < 9.49 nM
Second compound 0.0003 µM
  IC50: < 9.49 nM
Second compound 0.000949 µM
  IC50: < 9.49 nM
Second compound 0.003 µM
  IC50: < 9.49 nM
Second compound 30 pM, first compound 0.00949 µM
  viability, T/C: 0.83%
Second compound 30 pM, first compound 0.03 µM
  viability, T/C: 0.69%
Second compound 30 pM, first compound 0.0949 µM
  viability, T/C: 0.93%
Second compound 30 pM, first compound 0.3 µM
  viability, T/C: 0.66%
Second compound 30 pM, first compound 0.949 µM
  viability, T/C: 0.63%
Second compound 30 pM, first compound 3 µM
  viability, T/C: 1%
Second compound 94.9 pM, first compound 0.00949 µM
  viability, T/C: 0.99%
Second compound 94.9 pM, first compound 0.03 µM
  viability, T/C: 0.82%
Second compound 94.9 pM, first compound 0.0949 µM
  viability, T/C: 0.72%
Second compound 94.9 pM, first compound 0.3 µM
  viability, T/C: 0.82%
Second compound 94.9 pM, first compound 0.949 µM
  viability, T/C: 0.82%
Second compound 94.9 pM, first compound 3 µM
  viability, T/C: 0.85%
Second compound 0.0003 µM, first compound 0.00949 µM
  viability, T/C: 0.98%
Second compound 0.0003 µM, first compound 0.03 µM
  viability, T/C: 0.93%
Second compound 0.0003 µM, first compound 0.0949 µM
  viability, T/C: 0.92%
Second compound 0.0003 µM, first compound 0.3 µM
  viability, T/C: 0.85%
Second compound 0.0003 µM, first compound 0.949 µM
  viability, T/C: 0.86%
Second compound 0.0003 µM, first compound 3 µM
  viability, T/C: 1.35%
Second compound 0.000949 µM, first compound 0.00949 µM
  viability, T/C: 1%
Second compound 0.000949 µM, first compound 0.03 µM
  viability, T/C: 0.89%
Second compound 0.000949 µM, first compound 0.0949 µM
  viability, T/C: 0.76%
Second compound 0.000949 µM, first compound 0.3 µM
  viability, T/C: 1.25%
Second compound 0.000949 µM, first compound 0.949 µM
  viability, T/C: 0.97%
Second compound 0.000949 µM, first compound 3 µM
  viability, T/C: 0.5%
Second compound 0.003 µM, first compound 0.00949 µM
  viability, T/C: 0.48%
Second compound 0.003 µM, first compound 0.03 µM
  viability, T/C: 0.12%
Second compound 0.003 µM, first compound 0.0949 µM
  viability, T/C: 0.1%
Second compound 0.003 µM, first compound 0.3 µM
  viability, T/C: 0.1%
Second compound 0.003 µM, first compound 0.949 µM
  viability, T/C: 0.11%
Second compound 0.003 µM, first compound 3 µM
  viability, T/C: 0.4%

## CC(C)n1c(=O)n(C)c2cnc3cc(F)c(-c4ccc(OCCCN5CCCCC5)nc4)cc3c21 + Cn1nnc2c(C(N)=O)ncn2c1=O
Second compound 1 µM
  IC50: 662 nM
Second compound 3.16 µM
  IC50: 781 nM
Second compound 10 µM
  IC50: 118 nM
Second compound 31.6 µM
  IC50: < 31.6 nM
Second compound 100 µM
  IC50: < 31.6 nM
Second compound 1 µM, first compound 0.0316 µM
  viability, T/C: 70.8%
Second compound 1 µM, first compound 0.1 µM
  viability, T/C: 69.4%
Second compound 1 µM, first compound 0.316 µM
  viability, T/C: 54%
Second compound 1 µM, first compound 1 µM
  viability, T/C: 48.1%
Second compound 1 µM, first compound 3.16 µM
  viability, T/C: 28.4%
Second compound 1 µM, first compound 10 µM
  viability, T/C: 9.99%
Second compound 3.16 µM, first compound 0.0316 µM
  viability, T/C: 66%
Second compound 3.16 µM, first compound 0.1 µM
  viability, T/C: 66.1%
Second compound 3.16 µM, first compound 0.316 µM
  viability, T/C: 63.8%
Second compound 3.16 µM, first compound 1 µM
  viability, T/C: 42.6%
Second compound 3.16 µM, first compound 3.16 µM
  viability, T/C: 30.7%
Second compound 3.16 µM, first compound 10 µM
  viability, T/C: 8.69%
Second compound 10 µM, first compound 0.0316 µM
  viability, T/C: 61.6%
Second compound 10 µM, first compound 0.1 µM
  viability, T/C: 52.2%
Second compound 10 µM, first compound 0.316 µM
  viability, T/C: 35.7%
Second compound 10 µM, first compound 1 µM
  viability, T/C: 34.7%
Second compound 10 µM, first compound 3.16 µM
  viability, T/C: 20.3%
Second compound 10 µM, first compound 10 µM
  viability, T/C: 4.95%
Second compound 31.6 µM, first compound 0.0316 µM
  viability, T/C: 19.9%
Second compound 31.6 µM, first compound 0.1 µM
  viability, T/C: 16.5%
Second compound 31.6 µM, first compound 0.316 µM
  viability, T/C: 10.7%
Second compound 31.6 µM, first compound 1 µM
  viability, T/C: 8.57%
Second compound 31.6 µM, first compound 3.16 µM
  viability, T/C: 5.7%
Second compound 31.6 µM, first compound 10 µM
  viability, T/C: 0.75%
Second compound 100 µM, first compound 0.0316 µM
  viability, T/C: 4.09%
Second compound 100 µM, first compound 0.1 µM
  viability, T/C: 3.62%
Second compound 100 µM, first compound 0.316 µM
  viability, T/C: 2.44%
Second compound 100 µM, first compound 1 µM
  viability, T/C: 1.96%
Second compound 100 µM, first compound 3.16 µM
  viability, T/C: 1.15%
Second compound 100 µM, first compound 10 µM
  viability, T/C: 0.49%
